In patent US11945822B2, “Pyrazolo-triazine and/or pyrazolo-pxrimidine derivatives as selective inhibitor of cyclin dependent kinase” (QURIENT CO., LTD., priority 2018, dated 2024):
Like-named read-outs stand apart in the source and are kept apart here.

Legend:
CDK1/Cyclin B = target: T1, CDK1/Cyclin B (Homo sapiens, UniProt P06493); test: Enzymatic assay for CDK1 (FRET based LANCE Ultra kinase assay); format: biochemical
T1 construct: purchased Invitrogen PR4768C
Method: (§1) Enzymatic Binding Assay Protocol for CDK1, CDK2, CDK5 and CDK7
(§2) Inhibition activity of the respective compound on CDK kinase under Km value of ATP was tested in FRET based The LANCE® Ultra kinase assay (Perkin Elmer), which uses a ULight™-labeled peptide substrate and an appropriate Europium-labeled anti-phospho-antibody. Test compounds were made with DMSO solutions, and then 4-fold serial dilutions for 8 doses were prepared using automated liquid handler (POD810, LABCYTE) and 80 nL/well of diluted compound solutions were added into the 384-well plates (Greiner, Cat #784075). And then 68 nM of ULight-MBP peptide (Perkin Elmer, Cat #TRF0109-M) and 5 ul/well of ATP (Sigma, Cat #A7699) were added to the plate. After 1 min centrifugation at 1000 rpm, Purified CDKs/Cyclin complex were added following concentrations respectively. 24 uM for CDK1/Cyclin B (Invitrogen, Cat #PR4768C), 22 uM for CDK2/Cyclin A (Invitrogen, Cat #PV6290), 10 uM for CDK5/p25 (Invitrogen, Cat #PR8543B) and […] for CDK7/Cyclin H/MNAT1 (Invitrogen, Cat #PR6749B) were added to the each corresponding plate for CDK1, CDK2, CDK5 and CDK7. Incubate at 23° C. for 60 min and then Eu-labeled anti-phospho-Myelin Basic Protein (PE, Cat #TRF0201-M) and EDTA (Invitrogen, Cat #15575038) mixture in Lance Detection Buffer (Perkin Elmer, Cat #CR97100) was added in each well. After additional incubation at 23° C. for 60 min, test articles were measured the fluorescence using Envision leader (Perkin Elmer, USA) [Laser as excitation light; […] as the first and the second emission filter]. Data was analyzed using XL Fit software.

CDK5/p25 = target: T2, CDK5/p25 (Homo sapiens, UniProt Q00535); test: Enzymatic assay for CDK5 (FRET based LANCE Ultra kinase assay); format: biochemical
T2 construct: purchased Invitrogen PR8543B
T2 sequence (Q00535 whole entry): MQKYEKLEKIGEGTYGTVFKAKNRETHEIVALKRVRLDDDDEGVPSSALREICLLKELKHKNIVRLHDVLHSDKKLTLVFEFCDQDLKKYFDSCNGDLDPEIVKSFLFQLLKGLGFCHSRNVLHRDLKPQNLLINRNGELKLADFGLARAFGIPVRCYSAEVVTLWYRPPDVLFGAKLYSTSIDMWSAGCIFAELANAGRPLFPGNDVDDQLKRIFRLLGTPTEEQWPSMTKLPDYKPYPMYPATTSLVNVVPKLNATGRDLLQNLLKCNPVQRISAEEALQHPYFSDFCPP
T2 sequence (Q15078 99-307 partner limits assumed): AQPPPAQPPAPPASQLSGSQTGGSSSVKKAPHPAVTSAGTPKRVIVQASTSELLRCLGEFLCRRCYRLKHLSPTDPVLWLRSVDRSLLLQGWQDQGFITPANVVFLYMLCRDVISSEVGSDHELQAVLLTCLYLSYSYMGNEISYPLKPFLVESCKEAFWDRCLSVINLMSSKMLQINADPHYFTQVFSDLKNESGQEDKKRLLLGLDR
Method: as §1, §2

H460 = test: Cellular H460 viability assay (CellTiter-Glo, 72 hours); format: cell-based; details: Homo sapiens, NCI-H460
Method: All cell lines were routinely tested for mycoplasma.
The effect of the CDK7 inhibitor to inhibit the growth of target cancer cells was evaluated through the 72 hours time period of viability assay. Briefly, the candidate cell line ware plated in 96 well plate at the following density of cells respectively. […] DMSO solvent without compound served as a control and final DMSO concentration less than 0.1%. After 72 hours of incubation at 37° C., 5% CO2 incubator, cells were analyzed for the viability using the CellTiter-Glo Luminescent Cell Viability Assay (Promega, Cat #G7570). All viability assays were performed in duplicate and Luminescence was read using an Envision (Perkin Elmer, USA). Data was analyzed using XLfit software.

CDK7/Cyclin H/MNAT1 = target: T3, CDK7/Cyclin H/MNAT1 (Homo sapiens, UniProt P50613); test: Enzymatic assay for CDK7 (FRET based LANCE Ultra kinase assay); format: biochemical
T3 construct: purchased Invitrogen PR6749B
T3 sequence (P50613 whole entry): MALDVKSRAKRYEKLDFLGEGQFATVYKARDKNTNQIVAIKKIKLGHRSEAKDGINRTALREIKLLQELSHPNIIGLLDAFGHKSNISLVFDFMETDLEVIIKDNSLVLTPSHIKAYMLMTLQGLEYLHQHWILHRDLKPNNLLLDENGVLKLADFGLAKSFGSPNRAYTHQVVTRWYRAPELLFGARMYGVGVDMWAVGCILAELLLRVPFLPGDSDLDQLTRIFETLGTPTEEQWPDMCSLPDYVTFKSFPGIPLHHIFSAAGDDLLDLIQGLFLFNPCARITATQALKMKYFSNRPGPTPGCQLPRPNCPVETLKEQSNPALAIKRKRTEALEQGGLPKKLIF
T3 sequence (P51946 whole entry partner): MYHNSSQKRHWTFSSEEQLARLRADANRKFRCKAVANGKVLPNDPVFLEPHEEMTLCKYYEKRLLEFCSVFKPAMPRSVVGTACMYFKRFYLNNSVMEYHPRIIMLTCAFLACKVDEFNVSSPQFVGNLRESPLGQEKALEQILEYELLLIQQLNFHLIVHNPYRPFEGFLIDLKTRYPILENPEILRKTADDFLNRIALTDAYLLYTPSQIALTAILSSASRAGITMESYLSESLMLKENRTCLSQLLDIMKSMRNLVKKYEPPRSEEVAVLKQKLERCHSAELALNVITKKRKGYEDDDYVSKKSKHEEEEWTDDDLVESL
T3 sequence (P51948 whole entry partner): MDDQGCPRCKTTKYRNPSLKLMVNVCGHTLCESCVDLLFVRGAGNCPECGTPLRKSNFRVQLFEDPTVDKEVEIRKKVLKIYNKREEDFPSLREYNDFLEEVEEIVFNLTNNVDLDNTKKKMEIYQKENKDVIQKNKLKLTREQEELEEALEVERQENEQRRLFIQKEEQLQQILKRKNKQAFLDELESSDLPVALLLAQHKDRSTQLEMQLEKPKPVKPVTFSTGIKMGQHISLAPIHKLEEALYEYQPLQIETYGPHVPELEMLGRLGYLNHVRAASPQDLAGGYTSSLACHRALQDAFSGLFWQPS
Method: as §1
Inhibition activity of the respective compound on CDK kinase under Km value of ATP was tested in FRET based The LANCE® Ultra kinase assay (Perkin Elmer), which uses a ULight™-labeled peptide substrate and an appropriate Europium-labeled anti-phospho-antibody. […] After 1 min centrifugation at 1000 rpm, Purified CDKs/Cyclin complex were added following concentrations respectively. […] Data was analyzed using XL Fit software.

CDK2/Cyclin A = target: T4, CDK2/Cyclin A (Homo sapiens, UniProt P24941); test: Enzymatic assay for CDK2 (FRET based LANCE Ultra kinase assay); format: biochemical
T4 construct: purchased Invitrogen PV6290
Method: as §1, §2

[1] = read-out: CDK1 enzymatic activity (IC50 range)
[2] = read-out: CDK5 enzymatic activity (IC50 range)
[3] = read-out: CDK7 enzymatic activity (IC50 range)
[4] = read-out: CDK2 enzymatic activity (IC50 range)

T1 sequence (P06493 whole entry): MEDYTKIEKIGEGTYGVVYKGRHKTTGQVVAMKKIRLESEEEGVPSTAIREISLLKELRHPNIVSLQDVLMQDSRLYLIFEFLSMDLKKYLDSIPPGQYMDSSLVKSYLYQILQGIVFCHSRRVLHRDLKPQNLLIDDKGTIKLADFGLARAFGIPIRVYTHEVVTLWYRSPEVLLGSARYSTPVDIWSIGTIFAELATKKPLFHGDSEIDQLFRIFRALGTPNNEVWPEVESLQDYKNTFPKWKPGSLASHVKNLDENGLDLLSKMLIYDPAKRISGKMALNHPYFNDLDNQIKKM
T1 sequence (P14635 whole entry partner): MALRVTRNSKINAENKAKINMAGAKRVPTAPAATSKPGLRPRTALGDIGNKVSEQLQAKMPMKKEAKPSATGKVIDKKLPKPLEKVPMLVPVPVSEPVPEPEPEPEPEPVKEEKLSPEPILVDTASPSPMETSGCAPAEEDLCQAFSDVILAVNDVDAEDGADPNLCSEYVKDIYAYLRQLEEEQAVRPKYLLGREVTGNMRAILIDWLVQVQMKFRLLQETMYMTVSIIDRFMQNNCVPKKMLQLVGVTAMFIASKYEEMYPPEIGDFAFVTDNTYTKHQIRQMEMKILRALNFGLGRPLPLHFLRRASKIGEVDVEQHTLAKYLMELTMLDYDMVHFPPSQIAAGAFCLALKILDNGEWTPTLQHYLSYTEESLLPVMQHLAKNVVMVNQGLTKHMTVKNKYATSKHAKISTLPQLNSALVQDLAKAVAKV

SMILES | IC50 (CDK1/Cyclin B; [1]) [nM] | IC50 (CDK5/p25; [2]) [nM] | IC50 (H460) [nM] | CDK1/CDK7: Selectivity of CDK7 inhibition over CDK1 inhibition (CDK7/Cyclin H/MNAT1; CDK7 over CDK1) | CDK2/CDK7: Selectivity of CDK7 inhibition over CDK2 inhibition (CDK7/Cyclin H/MNAT1; CDK7 over CDK2) | CDK5/CDK7: Selectivity of CDK7 inhibition over CDK5 inhibition (CDK7/Cyclin H/MNAT1; CDK7 over CDK5) | IC50 (CDK7/Cyclin H/MNAT1; [3]) [nM] | IC50 (CDK2/Cyclin A; [4]) [nM] | IC50 (CDK1/Cyclin B; read-out: CDK1 enzymatic activity (IC50 activity range)) [nM] | IC50 (CDK5/p25; read-out: CDK5 enzymatic activity (IC50 activity range)) [nM] | CDK1/CDK7: Selectivity of CDK7 inhibition over CDK1 inhibition (CDK7/Cyclin H/MNAT1; CDK1/CDK7) | CDK2/CDK7: Selectivity of CDK7 inhibition over CDK2 inhibition (CDK7/Cyclin H/MNAT1; CDK2/CDK7) | CDK5/CDK7: Selectivity of CDK7 inhibition over CDK5 inhibition (CDK7/Cyclin H/MNAT1; CDK5/CDK7) | IC50 (CDK7/Cyclin H/MNAT1; read-out: CDK7 enzymatic activity (IC50 activity range)) [nM] | IC50 (CDK2/Cyclin A; read-out: CDK2 enzymatic activity (IC50 activity range)) [nM]
NC1CCN(c2nc(NCc3ccccc3-n3cccn3)n3ncc(C4CCCC4)c3n2)CC1 [Compound 12] | 100 to 1000 | < 100 | < 1000 | B (B=less than 200 fold, but greater than 20 fold) | B (B=less than 200 fold, but greater than 20 fold) | C (C=less than 20 fold) | < 100 | 100 to 1000 |  |  |  |  |  |  | 
Cc1ccc(CNc2nc(N3CCC(N)CC3)nc3c(C(C)C)cnn23)cc1-n1cccn1 [Compound 65] | > 1000 | 100 to 1000 | 1000 to 10000 | B (B=less than 200 fold, but greater than 20 fold) | B (B=less than 200 fold, but greater than 20 fold) | C (C=less than 20 fold) | < 100 | > 1000 |  |  |  |  |  |  | 
CC(C)c1cnn2c(NCc3ccccc3-n3cccn3)nc(-c3ccc(C4CCNCC4)cc3)nc12 [Compound 168] | > 1000 | 100 to 1000 |  | A (A=greater than 200 fold) | B (B=less than 200 fold, but greater than 20 fold) | B (B=less than 200 fold, but greater than 20 fold) | < 100 | 100 to 1000 |  |  |  |  |  |  | 
CC(C)c1cnn2c(NCc3cccc4ncn(C)c34)nc(N3CCC(N)CC3)nc12 [Compound 16] | 100 to 1000 | < 100 | < 1000 | B (B=less than 200 fold, but greater than 20 fold) | B (B=less than 200 fold, but greater than 20 fold) | C (C=less than 20 fold) | < 100 | 100 to 1000 |  |  |  |  |  |  | 
CC(C)c1cnn2c(NCc3ccccc3-c3cc4cccc(NC(=O)N(C)C)c4[nH]3)nc(N3CCC(N)CC3)nc12 [Compound 149] | 100 to 1000 | < 100 | < 1000 | B (B=less than 200 fold, but greater than 20 fold) | B (B=less than 200 fold, but greater than 20 fold) | C (C=less than 20 fold) | < 100 | < 100 |  |  |  |  |  |  | 
NC1CCN(c2nc(NCc3ccccc3-n3cccn3)n3ncc(Cl)c3n2)CC1 [Compound 29] |  |  | 1000 to 10000 |  |  |  |  |  |  |  |  |  |  |  | 
CC(C)c1cnn2c(NCc3ccc(Cl)c(-n4cccn4)c3)nc(N3CCC(N)CC3)nc12 [Compound 67] | > 1000 | 100 to 1000 | 1000 to 10000 | B (B=less than 200 fold, but greater than 20 fold) | C (C=less than 20 fold) | C (C=less than 20 fold) | < 100 | 100 to 1000 |  |  |  |  |  |  | 
CC(C)c1cnn2c(NCc3ccccc3-n3cccn3)nc(C(=O)NC3CCNC3)nc12 (racemic) [Compound 8] | > 1000 | > 1000 | > 10000 | B (B=less than 200 fold, but greater than 20 fold) | B (B=less than 200 fold, but greater than 20 fold) | C (C=less than 20 fold) | 100 to 1000 | > 1000 |  |  |  |  |  |  | 
N#Cc1cnn2c(NCc3ccccc3-n3cccn3)nc(N3CCC(N)CC3)nc12 [Compound 34] | > 1000 | 100 to 1000 | 1000 to 10000 | B (B=less than 200 fold, but greater than 20 fold) | C (C=less than 20 fold) | C (C=less than 20 fold) | < 100 | 100 to 1000 |  |  |  |  |  |  | 
CC(C)c1cnn2c(NCc3cccc4cnn(C)c34)nc(N3CCC(N)CC3)nc12 [Compound 10] | 100 to 1000 | < 100 | < 1000 | B (B=less than 200 fold, but greater than 20 fold) | B (B=less than 200 fold, but greater than 20 fold) | C (C=less than 20 fold) | < 100 | 100 to 1000 |  |  |  |  |  |  | 
CC(C)c1cnn2c(NCc3c[nH]c4ccccc34)nc(N3CCC(N)CC3)nc12 [Compound 28] | > 1000 | 100 to 1000 |  | B (B=less than 200 fold, but greater than 20 fold) | B (B=less than 200 fold, but greater than 20 fold) | C (C=less than 20 fold) | < 100 | 100 to 1000 |  |  |  |  |  |  | 
Cc1cccc(-c2cc(C(C)(C)O)n(C)n2)c1CNc1nc(N2CCC(N)CC2)nc2c(C(C)C)cnn12 [Compound 259] |  |  |  |  |  |  |  |  | > 1000 | > 1000 | A (A=greater than 200 fold) | A (A=greater than 200 fold) | A (A=greater than 200 fold) | < 100 | > 1000
CC(C)c1cnn2c(NCc3ccccc3Br)nc(N3CCC(N)CC3)nc12 [Compound 22] |  |  | < 1000 |  |  |  |  |  |  |  |  |  |  |  | 
CNC(=O)c1cccnc1CNc1nc(N2CCC(N)CC2)nc2c(C(C)(C)C)cnn12 [Compound 15] | > 1000 | > 1000 |  | A (A=greater than 200 fold) | A (A=greater than 200 fold) | B (B=less than 200 fold, but greater than 20 fold) | < 100 | > 1000 |  |  |  |  |  |  | 
CC(C)c1cnn2c(NCc3ccccc3-n3cccn3)nc(C(=O)N3CCN(C)CC3)nc12 [Compound 7] |  |  | > 10000 |  |  |  |  |  |  |  |  |  |  |  | 
CC(C)c1cnn2c(NCc3ccccc3-n3cccn3)nc(C3CCNCC3)nc12 [Compound 23] |  |  | < 1000 |  |  |  |  |  |  |  |  |  |  |  | 
